Reference: patent publication US10392391B2 (Vertex Pharmaceuticals Incorporated, priority 2012, dated 2019)

The molecules below were run against ATR kinase (full-length ATR) (Homo sapiens (Human), UniProt Q13535) (assay: ATR inhibition assay (radioactive-phosphate incorporation)). Details: not given.
Assay type: biochemical
Experimental: Compounds were screened for their ability to inhibit ATR kinase using a radioactive-phosphate incorporation assay. Assays were carried out in a mixture of 50 mM Tris/HCl (pH 7.5), 10 mM MgCl2 and 1 mM DTT. Final substrate concentrations were 10 μM [γ-33P]ATP (3mCi 33P ATP/mmol ATP, Perkin Elmer) and 800 μM target peptide ([…]) (SEQ ID NO:1).
Assays were carried out at 25° C. in the presence of 5 nM full-length ATR. An assay stock buffer solution was prepared containing all of the reagents listed above, with the exception of ATP and the test compound of interest. 13.5 μL of the stock solution was placed in a 96 well plate followed by addition of 2 μL of DMSO stock containing serial dilutions of the test compound (typically starting from a final concentration of 15 μM with 3-fold serial dilutions) in duplicate (final DMSO concentration 7%). The plate was pre-incubated for 10 minutes at 25° C. and the reaction initiated by addition of 15 μL [γ-33P]ATP (final concentration 10 μM).
The reaction was stopped after […] by the addition of 30 μL 0.1M phosphoric acid containing 2 mM ATP. A multiscreen phosphocellulose filter 96-well plate (Millipore, Cat no. MAPHN0B50) was pretreated with 100 μL 0.2M phosphoric acid prior to the addition of […] of the stopped assay mixture. The plate was washed with 5×200 μL 0.2M phosphoric acid. After drying, 100 μL Optiphase ‘SuperMix’ liquid scintillation cocktail (Perkin Elmer) was added to the well prior to scintillation counting (1450 Microbeta Liquid Scintillation Counter, Wallac).
After removing mean background values for all of the data points, Ki(app) data were calculated from non-linear regression analysis of the initial rate data using the Prism software package (GraphPad Prism version 3.0cx for Macintosh, GraphPad Software, San Diego Calif., USA).

ATR kinase (full-length ATR), sequence (Q13535 whole entry): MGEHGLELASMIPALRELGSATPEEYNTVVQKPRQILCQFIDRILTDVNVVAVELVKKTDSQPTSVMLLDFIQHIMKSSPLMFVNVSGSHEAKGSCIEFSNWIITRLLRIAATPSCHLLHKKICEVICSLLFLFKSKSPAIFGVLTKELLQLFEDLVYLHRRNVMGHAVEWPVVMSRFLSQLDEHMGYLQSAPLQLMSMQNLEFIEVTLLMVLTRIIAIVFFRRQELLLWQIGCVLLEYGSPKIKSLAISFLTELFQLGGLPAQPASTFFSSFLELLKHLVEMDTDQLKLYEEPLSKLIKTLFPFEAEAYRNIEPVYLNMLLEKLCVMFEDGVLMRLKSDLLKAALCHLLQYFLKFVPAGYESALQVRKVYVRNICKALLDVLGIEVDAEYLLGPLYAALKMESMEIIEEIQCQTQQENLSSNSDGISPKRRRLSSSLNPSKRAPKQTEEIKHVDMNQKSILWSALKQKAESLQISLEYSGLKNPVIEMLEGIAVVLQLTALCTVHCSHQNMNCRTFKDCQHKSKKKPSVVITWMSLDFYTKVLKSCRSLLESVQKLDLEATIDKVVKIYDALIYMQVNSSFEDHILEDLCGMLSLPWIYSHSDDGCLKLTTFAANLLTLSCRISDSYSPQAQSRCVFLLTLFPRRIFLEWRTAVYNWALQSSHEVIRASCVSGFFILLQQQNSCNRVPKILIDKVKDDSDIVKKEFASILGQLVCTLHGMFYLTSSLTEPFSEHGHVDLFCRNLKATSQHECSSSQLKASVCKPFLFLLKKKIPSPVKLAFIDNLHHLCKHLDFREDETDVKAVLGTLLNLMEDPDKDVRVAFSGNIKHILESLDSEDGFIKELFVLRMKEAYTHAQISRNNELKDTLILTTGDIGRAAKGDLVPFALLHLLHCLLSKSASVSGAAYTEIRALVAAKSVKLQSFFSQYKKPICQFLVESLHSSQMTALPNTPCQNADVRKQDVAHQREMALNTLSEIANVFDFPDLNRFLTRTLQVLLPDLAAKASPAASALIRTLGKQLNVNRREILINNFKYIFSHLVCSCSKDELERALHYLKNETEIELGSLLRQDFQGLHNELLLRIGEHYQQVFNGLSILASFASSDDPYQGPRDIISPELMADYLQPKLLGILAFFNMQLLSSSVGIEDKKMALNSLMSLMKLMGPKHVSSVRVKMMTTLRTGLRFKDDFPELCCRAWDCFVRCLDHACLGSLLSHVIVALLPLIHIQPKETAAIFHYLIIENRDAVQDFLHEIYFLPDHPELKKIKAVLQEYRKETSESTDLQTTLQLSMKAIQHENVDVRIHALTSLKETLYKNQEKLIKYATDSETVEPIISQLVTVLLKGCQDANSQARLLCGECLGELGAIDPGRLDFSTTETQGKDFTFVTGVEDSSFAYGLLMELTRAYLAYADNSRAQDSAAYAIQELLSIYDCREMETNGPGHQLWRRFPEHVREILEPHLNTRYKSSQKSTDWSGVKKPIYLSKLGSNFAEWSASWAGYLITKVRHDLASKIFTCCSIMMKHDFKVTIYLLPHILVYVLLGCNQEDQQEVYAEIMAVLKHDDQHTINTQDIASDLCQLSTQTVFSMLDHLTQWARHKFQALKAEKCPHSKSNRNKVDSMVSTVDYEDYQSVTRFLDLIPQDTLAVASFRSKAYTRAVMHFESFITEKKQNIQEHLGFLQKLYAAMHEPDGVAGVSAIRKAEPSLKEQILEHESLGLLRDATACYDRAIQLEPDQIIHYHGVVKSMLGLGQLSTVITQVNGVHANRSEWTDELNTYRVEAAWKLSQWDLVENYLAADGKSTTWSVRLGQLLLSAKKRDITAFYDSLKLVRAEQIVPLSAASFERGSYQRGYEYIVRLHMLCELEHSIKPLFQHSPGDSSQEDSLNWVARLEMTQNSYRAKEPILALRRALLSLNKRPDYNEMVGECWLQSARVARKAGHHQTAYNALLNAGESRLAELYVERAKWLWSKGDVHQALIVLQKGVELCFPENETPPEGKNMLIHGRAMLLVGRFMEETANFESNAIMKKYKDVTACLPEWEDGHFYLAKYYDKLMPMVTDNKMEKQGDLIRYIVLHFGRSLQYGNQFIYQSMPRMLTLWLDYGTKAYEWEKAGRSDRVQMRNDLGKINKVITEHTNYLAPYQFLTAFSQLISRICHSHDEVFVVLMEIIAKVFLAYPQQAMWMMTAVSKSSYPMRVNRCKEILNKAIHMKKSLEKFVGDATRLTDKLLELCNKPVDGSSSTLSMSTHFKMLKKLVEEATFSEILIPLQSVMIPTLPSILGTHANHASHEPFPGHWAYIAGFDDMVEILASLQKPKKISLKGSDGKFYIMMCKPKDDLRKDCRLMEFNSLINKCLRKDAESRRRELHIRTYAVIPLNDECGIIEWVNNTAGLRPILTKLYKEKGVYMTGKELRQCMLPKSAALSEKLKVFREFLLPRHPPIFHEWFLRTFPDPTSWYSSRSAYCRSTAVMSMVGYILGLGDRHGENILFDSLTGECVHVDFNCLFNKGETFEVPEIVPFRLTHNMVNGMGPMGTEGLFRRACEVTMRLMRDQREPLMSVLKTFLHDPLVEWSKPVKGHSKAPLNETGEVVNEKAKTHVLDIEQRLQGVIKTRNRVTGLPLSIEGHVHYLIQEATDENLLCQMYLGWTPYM

| SMILES | Ki [µM] |
| --- | --- |
| CC(C)(C)N1CCN(c2ccncc2NC(=O)c2c(N)nn3cc(Cl)cnc23)CC1 [I-N-34, 2-amino-N-(4-(4-(tert-butyl)piperazin-1-yl)pyridin-3-yl)-6-chloropyrazolo[1,5-a]pyrimidine-3-carboxamide] | 1 to 5 |
| Nc1nn2cc(F)cnc2c1C(=O)Nc1cncc(F)c1C1CCN(C2COC2)CC1 [I-C-13, 2-amino-6-fluoro-N-(5-fluoro-4-(1-(oxetan-3-yl)piperidin-4-yl)pyridin-3-yl)pyrazolo[1,5-a]pyrimidine-3-carboxamide] | 1 to 5 |

Same assay, conditions: Ki(app), 5 nM full-length ATR, 10 μM ATP, 25° C.

| SMILES | Ki [µM] |
| --- | --- |
| Nc1nn2cc(Cl)cnc2c1C(=O)Nc1cnccc1N1CCCC(N)C1 (stereo not shown) [I-N-55, 2-amino-N-(4-(3-aminopiperidin-1-yl)pyridin-3-yl)-6-chloropyrazolo[1,5-a]pyrimidine-3-carboxamide] | 0.01 to 1 |
| Nc1nn2cc(Cl)cnc2c1C(=O)Nc1cnccc1O[C@@H]1CCNC1 [I-O-77, (R)-2-amino-6-chloro-N-(4-(pyrrolidin-3-yloxy)pyridin-3-yl)pyrazolo[1,5-a]pyrimidine-3-carboxamide] | 0.01 to 1 |
| Nc1nn2cc(F)cnc2c1C(=O)Nc1cnccc1N1CCN2C(=O)CCCC2C1 (stereo not shown) [I-N-244, 2-amino-6-fluoro-N-(4-(6-oxohexahydro-1H-pyrido[1,2-a]pyrazin-2(6H)-yl)pyridin-3-yl)pyrazolo[1,5-a]pyrimidine-3-carboxamide] | 0.01 to 1 |
| CN1CCN(C(=O)C2CCN(c3c(F)cncc3NC(=O)c3c(N)nn4cc(F)cnc34)CC2)CC12CC2 [I-G-38, 2-amino-6-fluoro-N-(5-fluoro-4-(4-(4-methyl-4,7-diazaspiro[2.5]octane-7-carbonyl)piperidin-1-yl)pyridin-3-yl)pyrazolo[1,5-a]pyrimidine-3-carboxamide] | 0.01 to 1 |
| Cc1ccncc1NC(=O)c1c(N)nn2cc(CC#N)cnc12 [I-C-3, 2-amino-6-(cyanomethyl)-N-(4-methylpyridin-3-yl)pyrazolo[1,5-a]pyrimidine-3-carboxamide] | 0.01 to 1 |
| CN1CCC(Oc2ccncc2NC(=O)c2c(N)nn3cc(Cl)cnc23)CC1 [I-O-64, 2-amino-6-chloro-N-(4-((1-methylpiperidin-4-yl)oxy)pyridin-3-yl)pyrazolo[1,5-a]pyrimidine-3-carboxamide] | 0.01 to 1 |
| Nc1nn2cc(F)cnc2c1C(=O)Nc1cnccc1N1CCC(C(=O)N2CCC3(COC3)C2)CC1 [I-G-84, N-(4-(4-(2-oxa-6-azaspiro[3.4]octane-6-carbonyl)piperidin-1-yl)pyridin-3-yl)-2-amino-6-fluoropyrazolo[1,5-a]pyrimidine-3-carboxamide] | 0.01 to 1 |
| COC1(C)CN(C(=O)C2CCN(c3c(F)cncc3NC(=O)c3c(N)nn4cc(F)cnc34)CC2)C1 [I-G-75, 2-amino-6-fluoro-N-(5-fluoro-4-(4-(3-methoxy-3-methylazetidine-1-carbonyl)piperidin-1-yl)pyridin-3-yl)pyrazolo[1,5-a]pyrimidine-3-carboxamide] | 0.01 to 1 |
| Nc1nn2cc(Cl)cnc2c1C(=O)Nc1cnccc1N1CCN2CCC1CC2 [I-N-56, N-(4-(1,4-diazabicyclo[3.2.2]nonan-4-yl)pyridin-3-yl)-2-amino-6-chloropyrazolo[1,5-a]pyrimidine-3-carboxamide] | 0.01 to 1 |
| Nc1nn2cc(F)cnc2c1C(=O)Nc1cncc(F)c1N1CCC(C(=O)N2CCNC3CC32)CC1 (stereo not shown) [I-G-62, N-(4-(4-(2,5-diazabicyclo[4.1.0]heptane-2-carbonyl)piperidin-1-yl)-5-fluoropyridin-3-yl)-2-amino-6-fluoropyrazolo[1,5-a]pyrimidine-3-carboxamide] | 0.01 to 1 |
| N#CCc1cnc2c(C(=O)Nc3cnccc3OC3CCNCC3)c(N)nn2c1 [I-O-84, 2-amino-6-(cyanomethyl)-N-(4-(piperidin-4-yloxy)pyridin-3-yl)pyrazolo[1,5-a]pyrimidine-3-carboxamide] | < 0.01 |
| N#CCc1cnc2c(C(=O)Nc3cnccc3OC3CCC3)c(N)nn2c1 [I-O-36, 2-amino-6-(cyanomethyl)-N-(4-cyclobutoxypyridin-3-yl)pyrazolo[1,5-a]pyrimidine-3-carboxamide] | < 0.01 |
| CN(C)CCOc1ccncc1NC(=O)c1c(N)nn2cc(CC#N)cnc12 [I-O-24, 2-amino-6-(cyanomethyl)-N-(4-(2-(dimethylamino)ethoxy)pyridin-3-yl)pyrazolo[1,5-a]pyrimidine-3-carboxamide] | < 0.01 |
| CO[C@H]1CCN(C(=O)C2CCN(c3ccncc3NC(=O)c3c(N)nn4cc(F)cnc34)CC2)C1 [I-G-94, (S)-2-amino-6-fluoro-N-(4-(4-(3-methoxypyrrolidine-1-carbonyl)piperidin-1-yl)pyridin-3-yl)pyrazolo[1,5-a]pyrimidine-3-carboxamide] | 0.01 to 1 |
| Nc1nn2cc(F)cnc2c1C(=O)Nc1cnccc1N1CCN(CC(F)(F)F)CC1 [I-N-20, 2-amino-6-fluoro-N-(4-(4-(2,2,2-trifluoroethyl)piperazin-1-yl)pyridin-3-yl)pyrazolo[1,5-a]pyrimidine-3-carboxamide] | 0.01 to 1 |
| N#CCc1cnc2c(C(=O)Nc3cnccc3OCCO)c(N)nn2c1 [I-O-33, 2-amino-6-(cyanomethyl)-N-(4-(2-hydroxyethoxy)pyridin-3-yl)pyrazolo[1,5-a]pyrimidine-3-carboxamide] | < 0.01 |
| Nc1nn2cc(F)cnc2c1C(=O)Nc1cnccc1N1CCN2[C@@H](CCS2(=O)=O)C1 [I-N-247, (S)-2-amino-N-(4-(1,1-dioxidotetrahydro-2H-isothiazolo[2,3-a]pyrazin-5(3H)-yl)pyridin-3-yl)-6-fluoropyrazolo[1,5-a]pyrimidine-3-carboxamide] | 0.01 to 1 |
| Nc1nn2cc(F)cnc2c1C(=O)Nc1cnccc1N1CCC(c2nnco2)CC1 [I-N-268, N-(4-(4-(1,3,4-oxadiazol-2-yl)piperidin-1-yl)pyridin-3-yl)-2-amino-6-fluoropyrazolo[1,5-a]pyrimidine-3-carboxamide] | 0.01 to 1 |

Results, then the molecule that gave them:

| Ki [µM] | SMILES |
| --- | --- |
| 0.01 to 1 | Nc1nn2cc(F)cnc2c1C(=O)Nc1cncc(C2CC2)c1N1CCN(C2COC2)CC1 [I-N-32, 2-amino-N-(5-cyclopropyl-4-(4-(oxetan-3-yl)piperazin-1-yl)pyridin-3-yl)-6-fluoropyrazolo[1,5-a]pyrimidine-3-carboxamide] |
| 0.01 to 1 | Nc1nn2cc(F)cnc2c1C(=O)Nc1cnccc1N1CCN(S(=O)(=O)C2CCOCC2)CC1 [I-N-177, 2-amino-6-fluoro-N-(4-(4-((tetrahydro-2H-pyran-4-yl)sulfonyl)piperazin-1-yl)pyridin-3-yl)pyrazolo[1,5-a]pyrimidine-3-carboxamide] |
| 0.01 to 1 | Nc1nn2cc(F)cnc2c1C(=O)Nc1cncc(Cl)c1N1CCN(C2CCOC2)CC1 (stereo not shown) [I-N-124, 2-amino-N-(5-chloro-4-(4-(tetrahydrofuran-3-yl)piperazin-1-yl)pyridin-3-yl)-6-fluoropyrazolo[1,5-a]pyrimidine-3-carboxamide] |
| 0.01 to 1 | Nc1nn2cc(F)cnc2c1C(=O)Nc1cncc(F)c1N1CCC(N2CCOCC2)CC1 [I-N-189, 2-amino-6-fluoro-N-(5-fluoro-4-(4-morpholinopiperidin-1-yl)pyridin-3-yl)pyrazolo[1,5-a]pyrimidine-3-carboxamide] |
| 0.01 to 1 | CC(C)N1CCC(C(=O)N2CCN(c3c(F)cncc3NC(=O)c3c(N)nn4cc(F)cnc34)CC2)C1 (stereo not shown) [I-N-206, 2-amino-6-fluoro-N-(5-fluoro-4-(4-(1-isopropylpyrrolidine-3-carbonyl)piperazin-1-yl)pyridin-3-yl)pyrazolo[1,5-a]pyrimidine-3-carboxamide] |
| 0.01 to 1 | Nc1nn2cc(F)cnc2c1C(=O)Nc1cncc(C2CC2)c1N1CCN([C@H]2CCOC2)CC1 [I-N-120, (S)-2-amino-N-(5-cyclopropyl-4-(4-(tetrahydrofuran-3-yl)piperazin-1-yl)pyridin-3-yl)-6-fluoropyrazolo[1,5-a]pyrimidine-3-carboxamide] |
| 0.01 to 1 | Cc1cncc(NC(=O)c2c(N)nn3cc(Cl)cnc23)c1N1CCN(C)CC1 [I-N-57, 2-amino-6-chloro-N-(5-methyl-4-(4-methylpiperazin-1-yl)pyridin-3-yl)pyrazolo[1,5-a]pyrimidine-3-carboxamide] |
| 0.01 to 1 | Nc1nn2cc(Cl)cnc2c1C(=O)Nc1cnccc1N1CCC(N2CCC2)CC1 [I-N-93, 2-amino-N-(4-(4-(azetidin-1-yl)piperidin-1-yl)pyridin-3-yl)-6-chloropyrazolo[1,5-a]pyrimidine-3-carboxamide] |
| 0.01 to 1 | Nc1nn2cc(F)cnc2c1C(=O)Nc1cnccc1N1CCN2C(=O)CC[C@H]2C1 [I-N-217, (S)-2-amino-6-fluoro-N-(4-(6-oxohexahydropyrrolo[1,2-a]pyrazin-2(1H)-yl)pyridin-3-yl)pyrazolo[1,5-a]pyrimidine-3-carboxamide] |
| 0.01 to 1 | CN1CCN(c2c(NC(=O)c3c(N)nn4cc(F)cnc34)cncc2C2CC2)CC1 [I-N-5, 2-amino-N-(5-cyclopropyl-4-(4-methylpiperazin-1-yl)pyridin-3-yl)-6-fluoropyrazolo[1,5-a]pyrimidine-3-carboxamide] |
| 0.01 to 1 | Nc1nn2cc(F)cnc2c1C(=O)Nc1cnccc1N1CCN(C(=O)C2COC2)CC1 [I-N-249] |
